Test results as given in patent publication US20040127416A1, “Therapeutic bioconjugates” (priority 2002, published 2004).
Each block holds one molecule with its values, some of them ahead of it. Ends that are not written are not given here. glycidyl methacrylate‑derivatized dextran = not defined here

How the values were obtained:
[1] = tested on: TNF-α stimulated, ICAM-expressing BECs; assay: inflammatory cell adhesion assay: U937 monocyte adhesion to TNF-α stimulated bovine endothelial cell monolayers; format: cell-based; conditions: U937 cells on TNF-α stimulated
Experimental: This experiment illustrates the activity of the bioconjugate, whose synthesis was described above, in the inflammatory cell adhesion assay. Bovine endothelial cell (BEC) monolayers were established in 24-well culture dishes. At 24 h prior to the assay, normal medium (Minimal Eagle's Medium with 10% fetal bovine serum, 1% ABAM and 1% L-glutamine) (Gibco, CA, USA) was replaced with medium containing tumor necrosis factor α (TNF-α, 10 ng/ml). Following the 24 h incubation period, each sample well received a medium change.
Treated sample groups received medium containing 6% dextran bioconjugate or 6% bioconjugate. […] Two other control treatments were given: a medium change with no dextran or peptide was given to a sample group pretreated with TNF-α, and a positive control that was not pretreated with TNF-α. After a 30-minute incubation period, the medium in all wells was replaced with medium containing the human monocyte cell line U937 (1×10^5/ml) (ATCC, Manassas, Va.). All samples were incubated for another 30 minutes, then washed three times with PBS to remove non-adherent cells. The average number of adherent cells per 100× microscopic field was determined for each sample group.

inflammatory HUVECs = assay: in vitro ICAM-1-mediated leukocyte cell adhesion assay: U937 adhesion to TNF-α treated HUVEC monolayers; format: cell-based, human; conditions: TNF-α (10 ng/ml, 24 h) treated HUVECs; medium containing 6% dextran bioconjugate, 30 min; n=4 wells
Experimental: To assess the effect of these peptide-dextran bioconjugates on inflammatory cell adhesion, the following in vitro ICAM-1-mediated leukocyte cell adhesion assay was performed. HUVEC monolayers were established in 24-well culture dishes. At 24 h prior to the assay, normal culture media were replaced with medium containing TNF-α (10 ng/ml). Following the 24 h incubation period, each sample well received a medium change. Treated sample groups received medium containing 6% dextran bioconjugate (dextran conjugated to the A domain peptide CNAFKILVVITDGEK). Untreated control samples received normal medium. Negative sham control samples received medium containing dextran conjugate with a scrambled A domain sequence (KCENGADFTKIIVLV). All samples were then incubated for 30 min prior to the adhesion assay. Medium was removed from all wells following the 30 min incubation and replaced with medium containing U937 monocytic cells (1×10^5/ml). All samples were then incubated for another 30 min. After this incubation period, samples were washed three times with PBS to remove non-adherent monocytes. The samples were then fixed, and an average number of adherent monocytes per 100× microscopic field was determined for each sample group. Statistical comparisons between sample groups (n=4 replicate wells per group) were performed using a student's t-test.

[2] = target: T1, ICAM-1 expressed on TNF-alpha stimulated bovine endothelial cells (BEC) (bovine, UniProt Q95132 28-535); assay: cell-based or functional assay
T1 sequence (looked up): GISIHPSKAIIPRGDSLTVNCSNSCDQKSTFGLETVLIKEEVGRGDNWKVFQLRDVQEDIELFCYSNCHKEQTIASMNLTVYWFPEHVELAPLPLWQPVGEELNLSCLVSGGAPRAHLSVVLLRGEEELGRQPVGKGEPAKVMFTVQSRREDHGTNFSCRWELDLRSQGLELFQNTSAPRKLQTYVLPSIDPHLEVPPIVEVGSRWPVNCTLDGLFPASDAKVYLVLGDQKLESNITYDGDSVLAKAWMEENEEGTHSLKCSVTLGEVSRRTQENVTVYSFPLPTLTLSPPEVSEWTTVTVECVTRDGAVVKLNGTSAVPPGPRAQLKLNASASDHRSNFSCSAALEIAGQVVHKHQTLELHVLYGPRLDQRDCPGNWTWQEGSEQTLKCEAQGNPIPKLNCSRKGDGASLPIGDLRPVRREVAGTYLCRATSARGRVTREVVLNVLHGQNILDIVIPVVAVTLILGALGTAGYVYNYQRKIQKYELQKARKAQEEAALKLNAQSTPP

Molecule: CTVDLKFGIKNIEAV [inactive peptide, reference compound]
effect on monocyte adhesion (in words) [1]: comparable to no treatment after the TNF-α activation

Molecule: active peptide conjugate: methacroylated dextran (about 70 kD) coupled to synthetic peptide CNAFKILVVITDGEK, based on the ICAM-1-binding portion of integrin αmβ2 (CD11b/CD18) (also: coupled to methacroylated dextran (about 70 kD), site not given here)
effect on monocyte adhesion (in words) ([1]; listed as active dextran bioconjugate): prevented monocyte adhesion to the extent observed in non-stimulated BECS | effect on monocyte adhesion (in words) ([1]; listed as bioconjugate): reducing monocyte adhesion to levels observed in control, non-stimulated cells | U937 cell adhesion reduced by (inflammatory HUVECs): 87.7%

Molecule: inactive peptide conjugate: dextran bioconjugate containing an inactive scrambled sequence of the A-domain peptide, CTVDLKFGIKNIEAV; sham control (also: conjugated to dextran, attachment site not given here) [reference compound]
effect on monocyte adhesion (in words) [1]: inhibited cell adhesion poorly

B1: dextran bioconjugate containing the inactive scrambled A-domain peptide CTVDLKFGIKNIEAV (peptide)
peptide: CTVDLKFGIKNIEAV
modifications: not fully specified (residue 1); also: Cys sulfhydryl coupled to glycidyl methacrylate-derivatized dextran (about 70 kD)
relative monocyte adherence (U937 cells on TNF-alpha activated BEC; negative control = 100%) [2]: 55.6%

B2: dextran/peptide bioconjugate: synthetic A domain peptide CNAFKILVVITDGEK coupled to methacroylated (activated) dextran (peptide)
peptide: C(glycidyl methacrylate‑derivatized dextran)NAFKILVVITDGEK
modifications: reading uncertain; also: polyvalent conjugate on dextran, peptides per dextran not given here
relative monocyte adherence (U937 cells on TNF-alpha activated BEC; negative control = 100%) [2]: 3.34%

Continued, values first:

relative monocyte adherence (U937 cells on TNF-alpha activated BEC; negative control = 100%) [2]: 95.7%
Molecule: CTVDLKFGIKNIEAV [inactive scrambled peptide CTVDLKFGIKNIEAV, unconjugated]

relative monocyte adherence (U937 cells on TNF-alpha activated BEC; negative control = 100%) [2]: 56.3%
Molecule: CNAFKILVVITDGEK [synthetic peptide CNAFKILVVITDGEK, unconjugated]
